The results in this text go back to patent US12590093B2, “Indolo[2′,3′:3,4]pyrido[2,1-b]quinazoline compound and use thereof” (INSTITUTE OF MEDICINAL BIOTECHNOLOGY CHINESE ACADEMY OF …, priority 2019, dated 2026).

Entries after “also recorded” stand apart in the source; their conditions may differ.

Assay [1] relates to NLRP3 inflammasome. Briefly: Western-blot of NLRP3 inflammasome proteins in liver of ApoE−/− mouse and J774A1 cells. Format: in vivo, mice. The protocol: 6-week-old male C57/BL6 ApoE^−/− mice were fed on normal chaw diet for one week. The mice were randomly divided into three groups (control group, high-fat diet model group, and treatment group, 12 mice per group) according to the body weight. From 7-week-old, the high-fat diet model group and the treatment group were fed on a high fat diet (HFD) (0.15% cholesterol and 20% fat), and the control group was fed on normal chow diet. The treatment group (R3) mice were administered intragastrically with TR3 (5 mg/kg). The control group and the high-fat diet model group mice were intragastrically administered with sodium carboxymethylcellulose (CMC-Na) solution. After 12 weeks of administration, all mice were fasted overnight. The blood sample was taken from the retro-orbital plexus, collected in a EP tube, and then centrifuged for 15 min (2500 rpm). The centrifuged serum (upper layer) was transferred to new EP tubes (divided into two aliquots) and stored at −20° C. for further use. The mice were fixed, and the skin was cut open along the midline of the abdomen to the neck. The abdominal cavity was cut open to collect the fresh liver tissue. The Liver tissue was put into 3 freezing tubes, and then immediately put into liquid nitrogen for subsequent detection of liver lipid detection and extraction of RNA and protein. The thorax was cut open to expose the heart. The heart was perfused with 10 ml PBS, and then fixed by perfusion with 4% paraformaldehyde solution until the liver turned white. The fixed liver was taken out and placed in a six-well plate containing 4% paraformaldehyde solution for further fixation. The full-length aorta (from the ascending aorta to the common iliac arteries) was isolated and placed in a six-well plate containing 4% paraformaldehyde solution. The aorta was fixed in 4% paraformaldehyde solution overnight and then stored in 20% sucrose solution at 4° C.
(§1) When animal tissues were used to prepare protein samples, the tissues were firstly homogenized and lysed in the RIPA lysis buffer. The subsequent steps were the same as those for preparing protein samples from cells. When cell supernatants were used to prepare protein samples, the supernatants were freeze-dried, needed to be extracted using a protein recovery kit (Applygen, Beijing, China), and then analyzed by western-blot.
The western-blot was used to detect the effects of TR3 on the activation of NLRP3 inflammasome and other related proteins in the liver of ApoE^−/− mouse and J774A1 cells.

For assay [2], the system named is NLRP3 inflammasome. The assay is described as follows: NLRP3 inflammasome in J774A.1 cells with MAPK agonist Anisomycin. The class given is cell-based. The following applies: MAPK signaling pathway agonist Anisomycin added, FIG. 9.
From the text: as §1
After that, the MAPK signaling pathway agonist Anisomycin and TR3 were added into J774A-1 cells.

For assay [3], the system named is ABCA1. The assay is described as follows: ABCA1 up-regulation, luciferase reporter in ABCA1P-LUC HepG2 cells. Format: cell-based. The following applies: co-incubated with MK886, GW9662, GSK3787 or GGPP.
For assay [4], the target named is T1, LXRβ (Homo sapiens, UniProt P55055).
T1 construct: expressed in transfected cells; host or cells: HepG2
T1 sequence (P55055 222-460 limits assumed): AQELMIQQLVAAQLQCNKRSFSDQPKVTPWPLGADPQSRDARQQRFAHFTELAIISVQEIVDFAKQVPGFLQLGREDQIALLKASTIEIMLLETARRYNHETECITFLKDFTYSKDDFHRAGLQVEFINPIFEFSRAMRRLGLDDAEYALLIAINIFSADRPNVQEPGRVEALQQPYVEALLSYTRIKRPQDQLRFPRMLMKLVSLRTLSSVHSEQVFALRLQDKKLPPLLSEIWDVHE
Briefly: Nuclear receptor reporter gene transient transfection (pBIND-hLXRs-LBD) in HepG2 cells, LXRβ. Format: cell-based. How it is done: (§2) HepG2 cells in logarithmic growth phase were digested, seeded into the white/clear 96-well plate at a density of 5×10^4 cells/well/100 μL until the cells grew to about 90% confluence and in good condition. 0.5 μL liposome (Lipofectamine® 2000) diluted with blank medium to 25 μL per well and incubated at room temperature for 5 min. The corresponding plasmids DNA (nuclear receptor plasmid:Gal4=1:10) were diluted in blank DMEM medium to 25 μL/well (mixing of two plasmids), then mixed evenly with the diluted liposome, and incubated for 20 min at 37° C. The DNA-liposome complex (50 μL per well) was added with the DMEM complete medium (100 μL per well) and mixed thoroughly to obtain a DNA-liposome complex cell culture. The cell medium was discarded, and replaced with the DNA-liposome complex cell culture (150 μL/well) (37° C., 5% CO2). After 6 h, the DNA-liposome complex cell culture medium was discarded, and 200 μL serum-free DMEM medium containing the compound at an appropriate concentration was added to each test well, and cultured for 18-24 h. The cell Luciferase activity was measured by the method as described in the Luciferase Assay System.

For assay [5], the system named is ABCA1. The assay is described as follows: ABCA1 protein expression in liver of ApoE−/− mice. The class given is in vivo. The following applies: FIG. 10. The protocol:
6-week-old male C57/BL6 ApoE^−/− mice were fed on normal chaw diet for one week. The mice were randomly divided into three groups (control group, high-fat diet model group, and treatment group, 12 mice per group) according to the body weight. From 7-week-old, the high-fat diet model group and the treatment group were fed on a high fat diet (HFD) (0.15% cholesterol and 20% fat), and the control group was fed on normal chow diet. The treatment group (R3) mice were administered intragastrically with TR3 (5 mg/kg). The control group and the high-fat diet model group mice were intragastrically administered with sodium carboxymethylcellulose (CMC-Na) solution. After 12 weeks of administration, all mice were fasted overnight. The blood sample was taken from the retro-orbital plexus, collected in a EP tube, and then centrifuged for 15 min (2500 rpm). The centrifuged serum (upper layer) was transferred to new EP tubes (divided into two aliquots) and stored at −20° C. for further use. […]
When animal tissues were used to prepare protein samples, the tissues were firstly homogenized and lysed in the RIPA lysis buffer. […] When cell supernatants were used to prepare protein samples, the supernatants were freeze-dried, needed to be extracted using a protein recovery kit (Applygen, Beijing, China), and then analyzed by western-blot.

Assay [6] deals with SR-BI. Briefly: SR-BI up-regulation, luciferase reporter in SR-BI-LUC HepG2 cells. The class given is cell-based. The following applies: Homo sapiens, 18 h, maximum up-regulation of luciferase activity versus DMSO, read-out: SR-BI max. The protocol: Experiments were conducted to detect whether the compounds of the disclosure can pharmacologically up-regulate the expression of ABCA1 and SR-BI. Firstly, ABCA1P-LUC HepG2 cells or SR-BI-LUC HepG2 cells in logarithmic growth phase were digested, diluted in cell culture medium, and counted. Cells were seeded into 96-well plates at a density of 5×10^5/ml (100 μL of the single-cell suspension per well). After cells fully adhered (about 6 h), the medium containing 10% FBS was removed, and the cells were gently washed with PBS. Serum free MEM-EBSS medium (200 μL per test well) and 2 μL of the compounds to be tested (at a final concentration of 10 μg/mL) were added to each test well, and meanwhile, DMSO at a corresponding concentration was added to the control well. After 18-24 h, the medium was removed. Cell Luciferase activity was measured by a method as described in the Luciferase Assay System. By optimizing the final concentration of DMSO, the treatment time of the compounds on the cells and the number of cells seeded into each well during the screening, the final screening conditions were determined as follows: each well is seeded with 5×10^4 cells, DMSO is added at a final concentration of 1%, and the sample is treated for 18 h.
The ratio of change of luciferase activity is calculated with the following formula: Ratio of change (%)=A/B×100;
wherein A is the luciferase activity (RLU) measured after the compound to be tested is added, and B is the luciferase activity (RLU) measured after the blank control (DMSO) is added. The luciferase activity of cells in each well was measured, and the dose-effect relationship between the concentration of the compound and the ratio of change of the luciferase activity was determined to calculate the EC50.

Assay [7] addresses T2, PPARα (Homo sapiens, UniProt Q07869).
T2 construct: expressed in transfected cells; host or cells: HepG2
T2 sequence (Q07869 239-466 limits assumed): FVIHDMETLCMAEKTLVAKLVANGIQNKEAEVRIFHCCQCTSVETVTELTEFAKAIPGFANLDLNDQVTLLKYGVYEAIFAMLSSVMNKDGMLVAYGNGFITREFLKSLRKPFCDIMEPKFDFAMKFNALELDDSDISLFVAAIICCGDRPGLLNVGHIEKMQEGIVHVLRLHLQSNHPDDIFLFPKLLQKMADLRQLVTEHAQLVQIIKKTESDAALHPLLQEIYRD
Briefly: Nuclear receptor reporter gene transient transfection (pBIND-hPPARs-LBD) in HepG2 cells, PPARα. Format: cell-based. The following applies: FIG. 2, result in words. The protocol: as §2
Background: A reporter such as luciferase makes a cellular process visible.

The mark [8] stands for this setting: liver of ApoE−/− mouse and J774A1 cells, western-blot, FIG. 6.

For `c1ccc2c(c1)CN1CCc3c([nH]c4ccccc34)C1=N2` [TR3, 5,7,8,13-tetrahydroindolo[2′,3′:3,4]pyrido[2,1-b]quinazoline], the “activation of NLRP3 inflammasome in the liver” value in assay [1] (liver of ApoE−/− mice) is “significantly inhibited”. For the same compound, in assay [1] (setting [8]), the “expression of Caspase-1 protein” value was “significantly inhibited”, the “expression of IL-1β protein” value is “significantly inhibited” and the “expression of NLRP3 protein” value was “significantly inhibited”. Besides, the “inhibitory effect on NLRP3, Caspase-1 and IL-1β with Anisomycin added” value in assay [2] is on record as “reduced”. Moreover, the “up-regulating transcription activity of ABCA1 when co-incubated with nuclear receptor inhibitor” value in assay [3] is “significantly inhibited”. Further, the LXRβ max in assay [4] (HepG2 cells, reporter gene, 18-24 h) came out at 1.42. Further, in assay [4] (result in words), the LXRβ agonist activity result was “showed agonist activity; also recorded: simultaneously activated PPARα/γ/δ and LXRα/β to a certain extent”. Further, the “expression of ABCA1 in the liver” value in assay [5] is on record as “increased”. Besides, the maximal fold induction in assay [6] came out at 2.07. Further, the “activation of PPARα” value in assay [7] was “simultaneously activated PPARα/γ/δ and LXRα/β to a certain extent”.
